Source: patent US20110251188A1, “ACENAPHTHO HETEROCYCLE COMPOUNDS, CYCLODEXTRIN INCLUSION COMPOUNDS AND COMPLEXES, AND USES IN THE MANUFACTURES OF BH3 PROTEIN ANALOGUE, BCL-2 FAMILY PROTEIN INHIBITORS THEREOF” (DALIAN UNIVERSITY OF TECHNOLOGY, priority 2008, published 2011)
In brackets after ≈: the same amount, converted by molar mass.

How the values were obtained:
Mcl-1 [1] = test: Western blotting, compounds compared with cyclodextrin inclusion compounds and complexes, Example 24; assay type: cell-based; settings: Table 8; 10 μM or equivalent of inclusion compound, 24 hours
Description: (§1) The cells were inoculated in a 6-well plate (2×10^5 cells/well). In the compound group, the compound 3-thiomorpholinyl-8-oxo-8H-acenaphtho[1,2-b]pyrrole-9-carbonitrile was dissolved into DMSO until the final concentration reached 10 μM. In the inclusion group, γ-cyclodextrin inclusion, which had been dissolved into water and was equivalent to 10 μM of the compound, was added thereinto. 24 hours later, the cells were washed with PBS for three times, then the cell sample was collected and cracked with 1×10^6/50 μl cell lysis solution (62.5 mM Tris-HCL pH 6.8; 2% SDS; 10% glycerol; 50 mM DTT; 0.01% bromphenol blue) at low temperature, then the solution was centrifuged and the protein supernatant was collected. The sample was boiled at 100° C. for 5 minutes and then was separated by electrophoresis on 12% SDS-PAGE and transferred. The interest protein was detected by the corresponding antibody. The expression of the interest protein in the cells was detected by horseradish peroxidase-labeled secondary antibodies in combination with ECL coloration method. […] The concentration of the protein bands in the Western figures were carried out semiquantitative analysis and normalization treatment with KODAK Gel Logic 1500 imaging system software.

Bcl-2 [2] = test: as above; assay type: cell-based; settings: Table 9; 10 μM or equivalent of inclusion compound, 24 hours
Description: as §1

MCF-7 cells = test: cytotoxicity depending on BAX/BAK, MTT, MCF-7 cells with or without BAX/BAK interfering plasmid; assay type: cell-based
Description: 3 ng of BAX/BAK interfering plasmid was transfected into MCF-7 cells by using calcium phosphate coprecipitation method, 24 hours later, the cells were collected. The expressions after the BAX and BAK proteins interfered with RNA was detected by Western, and the cell groups without plasmid transfection were treated similarly and were set as the control group. The transfected cells were inoculated in a 96-well plate (1×10^5 cells/well), the control experiment of the cell group without plasmid transfection was carried out in parallel. The compound 3-thiomorpholinyl-8-oxo-8 H-acenaphtho[1,2-b]pyrrole-9-carbonitrile to be detected was added thereinto according to the concentration gradient designed before the experiment. 48 hours later, the cellular vitality was detected by MTT. The experimental results were shown in FIG. 6, Gossypol as nonspecific BH3 analogue was treated in parallel.

Bcl-2 [3] = test: Western blotting, inhibition (downregulation) of Bcl-2 in tumor cells, Example 23; assay type: cell-based; settings: for inhibition against Bcl-2: Western blotting, tumor cells
Description: (§2) The interest protein was detected by the corresponding antibody. The expression of the interest protein in the cells was detected by horseradish peroxidase-labeled secondary antibodies in combination with ECL coloration method. […] The concentration of the protein bands in the Western images were carried out semiquantitative analysis and normalization treatment with KODAK Gel Logic 1500 imaging system software.

[4] = phase solubility experiment (solubility in water before and after cyclodextrin inclusion or complexation); settings: thermodynamic from solid, Solubility of compounds, Table 1, compound per se, before inclusion
[5] = test system: hepatoma carcinoma cells H22; test: in vivo tumor model, subcutaneous H22 tumor in Kunming mice; settings: experimental group 2: peritoneal injection of DMSO solution, 0.3 mg/kg BW every other day, 10 days; tumor volume on the fortieth day
Description: The Kunming mice (in China) were randomly divided into groups, with 10 mice in each group. The cultivated hepatoma carcinoma cells H22 were inoculated subcutaneously in the oxter of the mice with 200 μL/mouse. After bearing the cancer cells for five days, the subcutaneous tumor was formed. Then the compound 3-thiomorpholinyl-8-oxo-8H-acenaphtho[1,2-b]pyrrole-9-carbonitrile and γ-cyclodextrin inclusion compound thereof were given by peritoneal injection, and the compound to be detected included by γ-cyclodextrin was given by oral administration. The detection conditions comprise:
Blank control group: the mice were not treated in any manner after the bearing cancer;
Control group (1): the mice were given a peritoneal injection of DMSO solution every other day after the bearing cancer, 10 days in total;
Control group (2): the mice were given a peritoneal injection of cyclodextrin solution every other day after the bearing cancer, 10 days in total;
Experimental group (1): the mice were given a peritoneal injection of DMSO solution equivalent to 0.03 mg/kg BW compound every other day after the bearing cancer, 10 days in total;
Experimental group (2): the mice were given a peritoneal injection of DMSO solution equivalent to 0.3 mg/kg BW compound every other day after the bearing cancer, 10 days in total;
Experimental group (3): the mice were given a peritoneal injection of inclusion compound water solution equivalent to 0.3 mg/kg BW compound every other day after the bearing cancer, 10 days in total;
Experimental group (4): the mice were given an intragastric administration of inclusion compounds water solution equivalent to 0.3 mg/kg BW compound every other day after the bearing cancer, 10 days in total;
During the experimental period, the length-diameter (a) and short diameter (b), which was perpendicular to the length-diameter, of the tumor were detected twice every week. The gross tumor volume was determined according to the formula: ½ab^2. The survival time of the animal was observed. The tumor inhibition rate was calculated by the tumor volume on the fortieth day.

Mcl-1 [6] = test: Western blotting, inhibition (downregulation) of Mcl-1 in tumor cells, Example 23; assay type: cell-based; settings: for inhibition against Mcl-1: Western blotting, tumor cells
Description: as §2

[7] = biological target: T1, interaction between Bcl-2 and Bax (Homo sapiens, UniProt P10415); test: intracellular fluorescence polarization energy transfer (FRET), Hela cells transfected with Bcl-2-CFP and Bax-YFP; assay type: cell-based; settings: for Time for which the compound interfered with the interaction between Bcl-2 and Bax: goes with the concentration of E11; for Concentration at which the compound interfered with the interaction between Bcl-2 and Bax: goes with the time of E12
T1 construct: expressed in transfected cells; host or cells: Hela cells
Description: 24 hours later (please refer to FIG. 2), the cells were washed with PBS for three times. The fluorescence value was detected by GENIOS fluorescence enzyme-labelled meter (TECAN, Swiss). In time-dependent experiment, the transfected cells were inoculated in a 6-well plate, after that, 40 μM of the compound was added thereinto. 3, 6 and 24 hours later (FIG. 3), the fluorescence intensities were detected by plate reader. As for the cell group in which only Bcl-2-CFP plasmid was transfected, the values at 475 nm emission wave length and 433 nm excitation wave length were recorded. As for the cell group in which only Bax-YFP plasmid was transfected, the values at 527 nm emission wave length and 505 nm excitation wave length were recorded. […] The ratio of fluorescence intensity at 527 nm and 475 nm emission wave lengths was FRET. The FRET for the control group in which the plasmid was solely transfected was set as 1.0. […] The cellular vitality was detected by MTT method.
Wherein the concentration and time meant that the detected compound interfered with the interaction between Bcl-2 and Bax at the concentration for the time period.

T1 sequence (P10415 whole entry): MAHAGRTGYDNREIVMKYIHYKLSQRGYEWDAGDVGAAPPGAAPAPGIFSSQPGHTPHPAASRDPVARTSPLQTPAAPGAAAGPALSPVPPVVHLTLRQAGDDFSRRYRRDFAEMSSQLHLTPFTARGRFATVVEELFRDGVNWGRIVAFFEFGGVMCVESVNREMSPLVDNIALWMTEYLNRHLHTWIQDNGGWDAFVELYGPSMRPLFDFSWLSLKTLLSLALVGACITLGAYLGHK

solubility [4] | Time for which the compound interfered with the interaction between Bcl-2 and Bax [7] | Concentration at which the compound interfered with the interaction between Bcl-2 and Bax [7] | Compound | downregulation of Mcl-1 protein, semiquantitative analysis (band concentration, control = 1) (Mcl-1 [1]) | downregulation of Bcl-2 protein, semiquantitative analysis (band concentration, control = 1) (Bcl-2 [2]) | dependence of cytotoxicity on BAX/BAK (MCF-7 cells) | downregulation of Bcl-2 protein, semiquantitative analysis (band concentration, control = 1) (Bcl-2 [3]; 2 hours) | downregulation of Bcl-2 protein, semiquantitative analysis (band concentration, control = 1) (Bcl-2 [3]; 6 hours) | inhibition against Bcl-2 (Bcl-2 [3]) | tumor inhibition rate [5] | downregulation of Mcl-1 protein, semiquantitative analysis (band concentration, control = 1) (Mcl-1 [6]; 6 hours) | downregulation of Mcl-1 protein, semiquantitative analysis (band concentration, control = 1) (Mcl-1 [6]; 12 hours) | downregulation of Mcl-1 protein, semiquantitative analysis (band concentration, control = 1) (Mcl-1 [6]; 18 hours) | downregulation of Mcl-1 protein, semiquantitative analysis (band concentration, control = 1) (Mcl-1 [6]; 24 hours) | inhibition against Mcl-1 (Mcl-1 [6])
 | 2 h | 0.5 µM | N#CC1=C2C(=NC1=O)c1cccc3c(Sc4ccc(Br)cc4)ccc2c13 [3-(4-bromophenylthio)-8-oxo-8H-acenaphtho[1,2-b]pyrrole-9-carbonitrile] | 0.69 | 0.67 | absolute dependence on BAX/BAK | 0.66 | 0.35 | had the inhibition against Bcl-2 and Mcl-1 proteins | about 40% | 0.99 | 0.99 | 0.64 | 0.31 | had the inhibition against Bcl-2 and Mcl-1 proteins
0.12 µM (≈ 0.0276 µg/mL) | 2 h | 0.1 µM | N#CC1=C2C(=NC1=O)c1cccc3cccc2c13 [8-oxo-8H-acenaphtho[1,2-b]pyrrole-9-carbonitrile] | 0.77 | 0.69 | absolute dependence on BAX/BAK | 0.78 | 0.69 | had the inhibition against Bcl-2 and Mcl-1 proteins | about 60% | 0.99 | 0.99 | 0.48 | 0.21 | had the inhibition against Bcl-2 and Mcl-1 proteins

More lines, now with the values behind:

Compound | solubility [4] | Time for which the compound interfered with the interaction between Bcl-2 and Bax [7] | Concentration at which the compound interfered with the interaction between Bcl-2 and Bax [7] | downregulation of Mcl-1 protein, semiquantitative analysis (band concentration, control = 1) (Mcl-1 [1]) | downregulation of Bcl-2 protein, semiquantitative analysis (band concentration, control = 1) (Bcl-2 [2]) | dependence of cytotoxicity on BAX/BAK (MCF-7 cells) | downregulation of Bcl-2 protein, semiquantitative analysis (band concentration, control = 1) (Bcl-2 [3]; 2 hours) | downregulation of Bcl-2 protein, semiquantitative analysis (band concentration, control = 1) (Bcl-2 [3]; 6 hours) | inhibition against Bcl-2 (Bcl-2 [3]) | tumor inhibition rate [5] | downregulation of Mcl-1 protein, semiquantitative analysis (band concentration, control = 1) (Mcl-1 [6]; 6 hours) | downregulation of Mcl-1 protein, semiquantitative analysis (band concentration, control = 1) (Mcl-1 [6]; 12 hours) | downregulation of Mcl-1 protein, semiquantitative analysis (band concentration, control = 1) (Mcl-1 [6]; 18 hours) | downregulation of Mcl-1 protein, semiquantitative analysis (band concentration, control = 1) (Mcl-1 [6]; 24 hours) | inhibition against Mcl-1 (Mcl-1 [6])
N#CC1=C2C(=NC1=O)c1c(Sc3ccc(N)cc3)ccc3c(Sc4ccc(N)cc4)ccc2c13 [3,6-di(4-aminophenylthio)-8-oxo-8 H-acenaphtho[1,2-b]pyrrole-9-carbonitrile] | 0.31 µM (≈ 0.148 µg/mL) | 2 h | 1.0 µM | 0.75 | 0.75 | absolute dependence on BAX/BAK | 0.72 | 0.43 | had the inhibition against Bcl-2 and Mcl-1 proteins | about 50% | 0.99 | 0.99 | 0.68 | 0.33 | had the inhibition against Bcl-2 and Mcl-1 proteins
N#CC1=C2C(=NC1=O)c1c(Sc3ccc(Br)cc3)ccc3c(Sc4ccc(Br)cc4)ccc2c13 [3,6-di(4-bromophenylthio)-8-oxo-8H-acenaphtho[1,2-b]pyrrole-9-carbonitrile] | 0.16 µM (≈ 0.0967 µg/mL) | 2 h | 1.0 µM | 0.69 | 0.69 | absolute dependence on BAX/BAK | 0.68 | 0.49 | had the inhibition against Bcl-2 and Mcl-1 proteins | about 78% | 0.99 | 0.99 | 0.70 | 0.57 | had the inhibition against Bcl-2 and Mcl-1 proteins
N#CC1=C2C(=NC1=O)c1c(Sc3ccc(N)cc3)ccc3cccc2c13 [6-(4-aminophenylthio)-8-oxo-8H-acenaphtho[1,2-b]pyrrole-9-carbonitrile] | 0.28 µM (≈ 0.099 µg/mL) | 2 h | 0.2 µM | 0.70 | 0.74 | absolute dependence on BAX/BAK | 0.79 | 0.49 | had the inhibition against Bcl-2 and Mcl-1 proteins | about 30% | 0.99 | 0.99 | 0.55 | 0.27 | had the inhibition against Bcl-2 and Mcl-1 proteins
